In patent publication US20110237686A1, “FORMULATIONS AND METHODS OF USE” (Cerulean Pharma Inc, priority 2010, published 2011):
Values joined by “and” are separate entries in the source; they are usually repeats but may differ in a detail not shown here. Identical values can stand only once. One block for each molecule: values may come before it.

What was measured:
Type in all cases: physicochemical
[1] = Lyophilization using HP-β-CD, freezing with liquid nitrogen and vacuum at room temperature; conditions: PEGylated nanoparticles A, polymer 31.25 mg/mL, vacuum at room temperature;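 also: cyclodextrins or their derivatives tested as cryoprotectant during lyophilization of PEGylated nanoparticles, assessing particle size growth attributed to PEG crystallization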
Description: In this example, a new strategy of using cyclodextrins and their derivatives as a cryoprotectant was tested. […] A cryoprotectant is needed to lyophilize liquid formulation that contain PEGylated nanoparticles A (Entries #1 and #2).

[2] = Lyophilization using other cyclodextrins; conditions: for Dv90 / PDI / Zave / Filtration Potency Loss: post lyophilization
Description: Other CDs were also evaluated at the similar weight ratio of cryoprotectant/nanoparticle.

[3] = Lyophilization of stealth liposome (Doxil); conditions: lipids 16 mg/mL, cryoprotectant 40 mg/mL (2.5:1 w/w lipid), HP-β-CD lyophilization cycle, post lyophilization
[4] = Cryoprotectant screen, sucrose lyophilization cycle; conditions: PEGylated nanoparticles A; for Dv90 / PDI / Zave: reconstituted
Description: A cryoprotectant screen was performed as follows.
These conditions are shown below in Table 21.

[5] = Simple lyophilization of PLGA7K-PVA-PEG2K-30 and PLGA7K-PVA-PEG5K-30 PEGylated nanoparticle formulations; conditions: 2K PEG PLGA nanoparticles 20 mg/mL, cryoprotectant 20 mg/mL (1:1 w/w)
Description: The results are similar to that obtained for PEGylated nanoparticles A except for SB-β-CD. The result from SB-β-CD supported the H-bonding mechanism for cryoprotection of PEGylated PLGA nanoparticles since SB-β-CD has less hydroxyl groups than α-CD, γ-CD and HP-β-CD (about ⅓ of —OH groups of β-CD are substituted by sulfobutyl groups).

[6] = cryoprotectant 20 mg/mL (0.64:1 w/w)
[7] = cryoprotectant 40 mg/mL (1.28:1 w/w)
[8] = cryoprotectant 40 mg/mL (1.28:1 w/w), listed as HP-beta-CD
[9] = cryoprotectant 60 mg/mL (1.92:1 w/w)
[10] = cryoprotectant 80 mg/mL (2.56:1 w/w)
[11] = PEGylated nanoparticles A, polymer 31.25 mg/mL, CD 40 mg/mL (1.28:1 w/w)
[12] = polymer 31.25 mg/mL (Doce. 1.5), cryoprotectant 100 mg/mL (3.2:1 w/w)
[13] = polymer 31.25 mg/mL, cryoprotectant 30 mg/mL (0.96:1 w/w)
[14] = polymer 10.42 mg/mL (Doce. 0.50), cryoprotectant 100 mg/mL (9.6:1 w/w)
[15] = polymer 20.83 mg/mL (Doce. 1.00), cryoprotectant 100 mg/mL (4.8:1 w/w)
[16] = polymer 26.05 mg/mL (Doce. 1.25), cryoprotectant 100 mg/mL (3.8:1 w/w)
[17] = polymer 31.25 mg/mL, cryoprotectant 20 mg/mL (0.64:1 w/w)
[18] = polymer 31.25 mg/mL, cryoprotectant 60 mg/mL (1.92:1 w/w)
[19] = polymer 31.25 mg/mL, cryoprotectant 200 mg/mL (6.4:1 w/w)
[20] = polymer 31.25 mg/mL, cryoprotectant 300 mg/mL (9.6:1 w/w)
[21] = cryoprotectant 15 mg/mL (0.48:1 w/w)
[22] = SB-β-CD 40 mg/mL, polymer 28.87 mg/mL (Doce. 1.94), 1.39:1 w/w
[23] = SB-β-CD 60 mg/mL, polymer 28.87 mg/mL (Doce. 1.94), 2.08:1 w/w

Dv90 [1, 21]: 122 nm
Filtration Loss [1, 21]: 8%
PDI [1, 21]: 0.088
Reconstituted Solution appearance [1, 21]: good
Zave [1, 21]: 92.05 nm
Dv90 [2, 11]: 121 nm
PDI [2, 11]: 0.070
Zave [2, 11]: 92.06 nm
Dv90 [5]: 139 nm
PDI [5]: 0.087
Zave [5]: 101.0 nm
Molecule: OC[C@H]1O[C@@H]2O[C@H]3[C@H](O)[C@@H](O)[C@@H](O[C@H]4[C@H](O)[C@@H](O)[C@@H](O[C@H]5[C@H](O)[C@@H](O)[C@@H](O[C@H]6[C@H](O)[C@@H](O)[C@@H](O[C@H]7[C@H](O)[C@@H](O)[C@@H](O[C@H]1[C@H](O)[C@H]2O)O[C@@H]7CO)O[C@@H]6CO)O[C@@H]5CO)O[C@@H]4CO)O[C@@H]3CO [α-CD, α-cyclodextrin]

solubility of the lyoprotectant in the formulation ([2]; CD 40 mg/mL): Beta-CD is not soluble at this
Molecule: OC[C@H]1O[C@@H]2O[C@H]3[C@H](O)[C@@H](O)[C@@H](O[C@H]4[C@H](O)[C@@H](O)[C@@H](O[C@H]5[C@H](O)[C@@H](O)[C@@H](O[C@H]6[C@H](O)[C@@H](O)[C@@H](O[C@H]7[C@H](O)[C@@H](O)[C@@H](O[C@H]8[C@H](O)[C@@H](O)[C@@H](O[C@H]1[C@H](O)[C@H]2O)O[C@@H]8CO)O[C@@H]7CO)O[C@@H]6CO)O[C@@H]5CO)O[C@@H]4CO)O[C@@H]3CO [β-CD, β-cyclodextrin]

Dv90 [2, 11]: 121 nm
PDI [2, 11]: 0.097
Zave [2, 11]: 91.06 nm
Dv90 [5]: 139 nm
PDI [5]: 0.080
Zave [5]: 101.8 nm
Molecule: OC[C@H]1O[C@@H]2O[C@H]3[C@H](O)[C@@H](O)[C@@H](O[C@H]4[C@H](O)[C@@H](O)[C@@H](O[C@H]5[C@H](O)[C@@H](O)[C@@H](O[C@H]6[C@H](O)[C@@H](O)[C@@H](O[C@H]7[C@H](O)[C@@H](O)[C@@H](O[C@H]8[C@H](O)[C@@H](O)[C@@H](O[C@H]9[C@H](O)[C@@H](O)[C@@H](O[C@H]1[C@H](O)[C@H]2O)O[C@@H]9CO)O[C@@H]8CO)O[C@@H]7CO)O[C@@H]6CO)O[C@@H]5CO)O[C@@H]4CO)O[C@@H]3CO [γ-CD, γ-cyclodextrin]

The next lines start with the molecule.

Molecule: 2-hydroxypropyl-β-cyclodextrin [HP-β-CD]
Dv90 [1, 6]: 121 nm
PDI [1, 6]: 0.095
Reconstituted Solution appearance [1, 6]: some
Zave [1, 6]: 90.93 nm
Reconstituted Solution appearance [1, 7]: good
Dv90 [1, 8]: 118 nm and 119 nm
PDI [1, 8]: 0.077 and 0.075
Zave [1, 8]: 89.43 nm and 90.66 nm
Dv90 [1, 9]: 119 nm
PDI [1, 9]: 0.089
Reconstituted Solution appearance [1, 9]: good
Zave [1, 9]: 89.84 nm
Dv90 [1, 10]: 119 nm
PDI [1, 10]: 0.095
Reconstituted Solution appearance [1, 10]: good
Zave [1, 10]: 90.60 nm
Dv90 [2, 11]: 119 nm
PDI [2, 11]: 0.075
Zave [2, 11]: 90.66 nm
Dv90 [3]: 119 nm
PDI [3]: 0.071
Zave [3]: 90.32 nm

Molecule: OC[C@H]1O[C@@H](O[C@H]2[C@H](O)[C@@H](O)C(O)O[C@@H]2CO)[C@H](O)[C@@H](O)[C@H]1O (stereo partly drawn) [Lactose, lactose]
Lyophilized preparation Appearance [4, 12]: some
Recon. Solution Appearance [4, 12]: cloudy
Dv90 [4, 12]: 178 nm
PDI [4, 12]: 0.352
Zave [4, 12]: 183.2 nm

Molecule: OC[C@@H](O)[C@@H](O)[C@H](O)[C@H](O)CO [Mannitol, mannitol]
Lyophilized preparation Appearance [4, 12]: some
Recon. Solution Appearance [4, 12]: cloudy
Dv90 [4, 12]: 2540 nm
PDI [4, 12]: 0.544
Zave [4, 12]: 472.7 nm
Lyophilized preparation Appearance [4, 13]: good
Recon. Solution Appearance [4, 13]: precipitation
Dv90 [4, 13]: 340 nm
PDI [4, 13]: 0.638
Zave [4, 13]: 499.2 nm
outcome after lyophilization (in place of particle size) [5]: Precipitated

Molecule: OC[C@H]1O[C@H](O[C@H]2O[C@H](CO)[C@@H](O)[C@H](O)[C@H]2O)[C@H](O)[C@@H](O)[C@@H]1O [Trehalose, trehalose]
Lyophilized preparation Appearance [4, 14]: good
Recon. Solution Appearance [4, 14]: slight
Dv90 [4, 14]: 160 nm
PDI [4, 14]: 0.0166
Zave [4, 14]: 108.1 nm
Lyophilized preparation Appearance [4, 15]: good
Recon. Solution Appearance [4, 15]: cloudy
Dv90 [4, 15]: 189 nm
PDI [4, 15]: 0.725
Zave [4, 15]: 606.5 nm
Lyophilized preparation Appearance [4, 16]: good
Recon. Solution Appearance [4, 16]: cloudy
Dv90 [4, 16]: 379 nm
PDI [4, 16]: 0.372
Zave [4, 16]: 259.1 nm
Lyophilized preparation Appearance [4, 12]: good
Recon. Solution Appearance [4, 12]: cloudy
Dv90 [4, 12]: 286 nm
PDI [4, 12]: 0.417
Zave [4, 12]: 294.2 nm
Lyophilized preparation Appearance [4, 17]: good
Recon. Solution Appearance [4, 17]: precipitation
Dv90 [4, 17]: 188 nm
PDI [4, 17]: 0.381
Zave [4, 17]: 236.1 nm
Lyophilized preparation Appearance [4, 18]: good
Recon. Solution Appearance [4, 18]: cloudy
Dv90 [4, 18]: 169 nm
PDI [4, 18]: 0.464
Zave [4, 18]: 276.9 nm
Lyophilized preparation Appearance [4, 19]: good
Recon. Solution Appearance [4, 19]: slight
Dv90 [4, 19]: 186 nm
PDI [4, 19]: 0.348
Zave [4, 19]: 192.2 nm
Lyophilized preparation Appearance [4, 20]: good
Recon. Solution Appearance [4, 20]: slight
Dv90 [4, 20]: 205 nm
PDI [4, 20]: 0.325
Zave [4, 20]: 154.8 nm
Dv90 [1, 7]: 130 nm
PDI [1, 7]: 0.260
Reconstituted Solution appearance [1, 7]: precipitation
Zave [1, 7]: 114.1 nm
outcome after lyophilization (in place of particle size) [5]: Precipitated

Molecule: β-cyclodextrin sulfobutylether [SB-β-CD]
Dv90 [2, 22]: 149 nm
Filtration Potency Loss [2, 22]: 2%
Zave [2, 22]: 106.9 nm
Dv90 [2, 23]: 151 nm
Filtration Potency Loss [2, 23]: 8%
Zave [2, 23]: 108.5 nm
outcome after lyophilization (in place of particle size) [5]: Precipitated
